Measurements reported in patent US9650340B2, “5-fluoro-N-(pyridin-2-yl)pyridin-2-amine derivatives containing a sulfoximine group” (BAYER PHARMA AKTIENGESELLSCHAFT, priority 2012, dated 2017).
≈ marks a conversion by molar mass, not a printed value.

Legend:
[1] = tested on: A2780, human ovarian carcinoma cells; assay: Proliferation assay, A2780 (crystal violet); assay type: cell-based; settings: Homo sapiens, A2780, 96 h, A2780, 4 days; read-out: Inhibition of A2780 cell proliferation IC50
Protocol: Cultivated tumour cells (HeLa, human cervical tumour cells, ATCC CCL-2; NCI-H460, human non-small cell lung carcinoma cells, ATCC HTB-177; A2780, human ovarian carcinoma cells, ECACC #93112519; DU 145, hormone-independent human prostate carcinoma cells, ATCC HTB-81; HeLa-MaTu-ADR, multidrug-resistant human cervical carcinoma cells, EPO-GmbH Berlin; Caco-2, human colorectal carcinoma cells, ATCC HTB-37; B16F10, mouse melanoma cells, ATCC CRL-6475) were plated at a density of 5,000 cells/well (DU145, HeLa-MaTu-ADR), 3,000 cells/well (NCI-H460, HeLa), 2,500 cells/well (A2780), 1,500 cells/well (Caco-2), or 1,000 cells/well (B16F10) in a 96-well multititer plate in 200 μL of their respective growth medium supplemented 10% fetal calf serum. After 24 hours, the cells of one plate (zero-point plate) were stained with crystal violet (see below), while the medium of the other plates was replaced by fresh culture medium (200 μl), to which the test substances were added in various concentrations (0 μM, as well as in the range of 0.001-10 μM; the final concentration of the solvent dimethyl sulfoxide was 0.5%). The cells were incubated for 4 days in the presence of test substances. Cell proliferation was determined by staining the cells with crystal violet: the cells were fixed by adding 20 μl/measuring point of an 11% glutaric aldehyde solution for 15 minutes at room temperature. After three washing cycles of the fixed cells with water, the plates were dried at room temperature. The cells were stained by adding 100 μl/measuring point of a 0.1% crystal violet solution (pH 3.0). After three washing cycles of the stained cells with water, the plates were dried at room temperature. The dye was dissolved by adding 100 μl/measuring point of a 10% acetic acid solution. The extinction was determined by photometry at a wavelength of 595 nm. The change of cell number, in percent, was calculated by normalization of the measured values to the extinction values of the zero-point plate (=0%) and the extinction of the untreated (0 μm) cells (=100%). The IC50 values (inhibitory concentration at 50% of maximal effect) were determined by means of a 4 parameter fit. Non-adherent MOLM-13 human acute myeloid leukemia cells (DSMZ ACC 554) were seeded at a density of 5,000 cells/well in a 96-well multititer plate in 100 μL of growth medium supplemented 10% fetal calf serum. After 24 hours, cell viability of one plate (zero-point plate) was determined with the Cell Titre-Glo Luminescent Cell Viability Assay (Promega), while 50 μL of test compound containing medium was added to the wells of the other plates (final concentrations in the range of 0.001-10 μM and DMSO controls; the final concentration of the solvent dimethyl sulfoxide was 0.5%). Cell viability was assessed after 72-hour exposure with the Cell Titre-Glo Luminescent Cell Viability Assay (Promega).

Caco-2 permeation assay = assay type: in vitro ADME, human; settings: human; for Papp A→B at 2 h, 2 µM / Papp B→A at 2 h, 2 µM: Caco-2, pH 7.2, Caco-2, 2 μM test compound; for Papp A→B at 2 h, 2 µM: apical to basolateral, read-out: Papp A-B (Mari); for Papp B→A at 2 h, 2 µM: basolateral to apical, read-out: Papp B-A (Mari); for efflux ratio at 2 h, 2 µM: Caco-2, pH 7.2, Caco-2, 2 μM, Papp B-A / Papp A-B
Protocol: 5. Caco-2 Permeation Assay:
Caco-2 cells (purchased from DSMZ Braunschweig, Germany) were seeded at a density of 4.5×10^4 cells per well on 24 well insert plates, 0.4 μm pore size, and grown for 15 days in DMEM medium supplemented with 10% fetal bovine serum, 1% GlutaMAX (100×, GIBCO), 100 U/mL penicillin, 100 μg/mL streptomycin (GIBCO) and 1% non essential amino acids (100 ×). Cells were maintained at 37° C. in a humified 5% CO2 atmosphere. Medium was changed every 2-3 day. Before running the permeation assay, the culture medium was replaced by a FCS—free hepes-carbonate transport buffer (pH 7.2). For assessment of monolayer integrity the transepithelial electrical resistance (TEER) was measured. Test compounds were predissolved in DMSO and added either to the apical or basolateral compartment in final concentration of 2 μM in transport buffer. Before and after 2 h incubation at 37° C. samples were taken from both compartments. Analysis of compound content was done after precipitation with methanol by LC/MS/MS analysis. Permeability (Papp) was calculated in the apical to basolateral (A→B) and basolateral to apical (B→A) directions. The apparent permeability was calculated using following equation: Papp=(Vr/Po)(1/S)(P2/t)
Where Vr is the volume of medium in the receiver chamber, Po is the measured peak area or height of the test drug in the donor chamber at t=o, S the surface area of the monolayer, P2 is the measured peak area of the test drug in the acceptor chamber after 2 h of incubation, and t is the incubation time. The efflux ratio basolateral (B) to apical (A) was calculated by dividing the Papp B-A by the Papp A-B. In addition the compound recovery was calculated. The following reference compounds were used for the classification of the permeability class: Antipyrine, Pyrazosin, Verapamil, Fluvastatin, Cimetidine, Ranitidine, Atenolol, Sulfasalazine.

[2] = Equilibrium shake flask solubility assay, thermodynamic solubility in citrate buffer pH 4; assay type: physicochemical; settings: citrate buffer, pH 4, aqueous buffer, thermodynamic from solid, citrate buffer pH 4, 24 h, room temperature; read-out: Solubility in aqueous Citrate buffer pH4
Protocol: 4b) Thermodynamic Solubility in Citrate Buffer pH 4
Thermodynamic solubility was determined by an equilibrium shake flask method [Literature: Edward H. Kerns and Li Di (2008) Solubility Methods in: Drug-like Properties: Concepts, Structure Design and Methods, p276-286. Burlington, Mass.: Academic Press].
A saturated solution of the drug was prepared and the solution was mixed for 24 h to ensure that equilibrium has been reached. The solution was centrifuged to remove the insoluble fraction and the concentration of the compound in solution was determined using a standard calibration curve.
To prepare the sample, 1.5 mg solid compound was weighed in a 4 ml glass vial. 1 ml Citrate buffer pH 4 was added. The suspension was put on a stirrer and mixed for 24 hrs at room temperature. The solution was centrifuged afterwards. To prepare the sample for the standard calibration, 0.6 mg solid sample was dissolved in 19 ml acetonitrile/water 1:1. After sonification the solution was filled up with acetonitrile/water 1:1 to 20 ml.
Sample and standards were quantified by HPLC with UV-detection. For each sample two injection volumes (5 and 50 μl) in triplicates were made. Three injection volumes (5 μl, 10 μl and 20 μl) were made for the standard.
The areas of sample- and standard injections as well as the calculation of the solubility value (in mg/l) were determined by using HPLC software (Waters Empower 2 FR).

| Structure (SMILES) | IC50 [1] | Papp A→B at 2 h, 2 µM (Caco-2 permeation assay) | Papp B→A at 2 h, 2 µM (Caco-2 permeation assay) | solubility at 24 h [2] | efflux ratio at 2 h, 2 µM (Caco-2 permeation assay) |
| --- | --- | --- | --- | --- | --- |
| COc1cc(F)ccc1-c1cc(Nc2cc(CS(C)(=N)=O)ccn2)ncc1F (racemic) [Example 1, (rac)-5-Fluoro-4-(4-fluoro-2-methoxyphenyl)-N-{4-[(S-methylsulfonimidoyl)methyl]pyridin-2-yl}pyridin-2-amine] | 26 nM | 15.5 ×10⁻⁶ cm/s | 18 ×10⁻⁶ cm/s | 489 µg/mL (≈ 1210 µM) | – |
| COc1cc(F)ccc1-c1cc(Nc2cc(CS(C)(=N)=O)cc(C)n2)ncc1F (racemic) [Example 4, (rac)-5-Fluoro-4-(4-fluoro-2-methoxyphenyl)-N-{6-methyl-4-[(S-methylsulfonimidoyl)methyl]pyridin-2-yl}pyridin-2-amine] | 37 nM | 19.6 ×10⁻⁶ cm/s | 14.9 ×10⁻⁶ cm/s | 470 µg/mL (≈ 1120 µM) | 0.76 |
| COc1cc(F)ccc1-c1cc(Nc2cc(CS(=N)(=O)CCO)ccn2)ncc1F (racemic) [Example 8, (rac)-2-{S-[(2-{[5-Fluoro-4-(4-fluoro-2-methoxyphenyl)pyridin-2-yl]amino}pyridin-4-yl)methyl]sulfonimidoyl}ethanol] | 45 nM | 4.1 ×10⁻⁶ cm/s | 24.6 ×10⁻⁶ cm/s | 730 µg/mL (≈ 1680 µM) | 6 |

These reach a lower IC50 [1]. Values come first.

| IC50 [1] | Papp A→B at 2 h, 2 µM (Caco-2 permeation assay) | Papp B→A at 2 h, 2 µM (Caco-2 permeation assay) | solubility at 24 h [2] | efflux ratio at 2 h, 2 µM (Caco-2 permeation assay) | Structure (SMILES) |
| --- | --- | --- | --- | --- | --- |
| 14 nM | 14.1 ×10⁻⁶ cm/s | 13.5 ×10⁻⁶ cm/s | 3 µg/mL (≈ 7.1 µM) | 0.96 | COc1cc(F)ccc1-c1cc(Nc2cc(CS(C)(=N)=O)cc(F)n2)ncc1F (racemic) [Example 17, (rac)-5-Fluoro-4-(4-fluoro-2-methoxyphenyl)-N-{6-fluoro-4-[(S-methylsulfonimidoyl)methyl]pyridin-2-yl}pyridin-2-amine] |
| 12 nM | 4.8 ×10⁻⁶ cm/s | 5.3 ×10⁻⁶ cm/s | 52 µg/mL (≈ 110 µM) | 1.1 | COc1cc(F)ccc1-c1cc(Nc2cc(CS(C)(=N)=O)cc(C(F)(F)F)n2)ncc1F (single isomer, unassigned; (+)) [Example 22, (+)-5-Fluoro-4-(4-fluoro-2-methoxyphenyl)-N-{4-[(S-methylsulfonimidoyl)methyl]-6-(trifluoromethyl)pyridin-2-yl}pyridin-2-amine] |
